Source: patent US12570675B2, “Boronic acid compounds” (LG CHEM, LTD., priority 2020, dated 2026)

target: Proteasome chymotrypsin-like activity (S26 protein from RPMI8226 cells) (Homo sapiens, UniProt P28074); assay type: biochemical; settings: S26 protein from RPMI8226 cell extract 2 ug/well, substrate 20 uM, 37° C., 90 minutes; read-out: Proteasome chymotrypsin-like activity inhibition IC50
How it was run: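 Inhibition is measured in crude proteasome (S26) from RPMI8226 cells at 2 ug/well, using 20 uM substrate specific to each activity: Suc-LLVY-AMC for chymotrypsin-like, Z-LLE-AMC for caspase-like. Compounds span a dilution series from 10 uM.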

Sequence of Proteasome chymotrypsin-like activity (S26 protein from RPMI8226 cells) (P28074 60-263 limits assumed): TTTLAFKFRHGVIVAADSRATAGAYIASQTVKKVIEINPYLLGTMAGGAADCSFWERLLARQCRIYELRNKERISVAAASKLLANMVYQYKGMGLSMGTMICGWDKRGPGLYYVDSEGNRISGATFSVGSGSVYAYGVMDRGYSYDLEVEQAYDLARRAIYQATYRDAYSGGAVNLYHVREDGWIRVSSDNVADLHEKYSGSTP

`COc1cccc(CC2(C(=O)N[C@@H](CC(C)C)B(O)O)CC(CNC(=O)c3cc(C(C)(C)C)nn3C(C)C)=NO2)c1` (stereo partly drawn) [Example 231, ((1R)-1-(3-((3-(tert-butyl)-1-isopropyl-1H-pyrazol-5-carboxamido)methyl)-5-(3-methoxybenzyl)-4,5-dihydroisoxazol-5-carboxamido)-3-methylbutyl)boronic acid] and `COc1cccc(CC2(C(=O)N[C@@H](CC(C)C)B(O)O)CC(CNC(=O)c3ccnn3C(C)C)=NO2)c1` (stereo partly drawn) [Example 239, ((1R)-1-(3-((1-isopropyl-1H-pyrazol-5-carboxamido)methyl)-5-(3-methoxybenzyl)-4,5-dihydroisoxazol-5-carboxamido)-3-methylbutyl)boronic acid] cannot be ordered by IC50: less than 0.01 µM for the first, less than 0.01 µM for the second.

`COc1cccc(CC2(C(=O)N[C@@H](CC(C)C)B(O)O)CC(CNC(=O)c3cc(-c4ccccn4)nn3C(C)C)=NO2)c1` (stereo partly drawn) [Example 241, ((1R)-1-(3-((1-isopropyl-3-(pyridin-2-yl)-1H-pyrazol-5-carboxamido)methyl)-5-(3-methoxybenzyl)-4,5-dihydroisoxazol-5-carboxamido)-3-methylbutyl)boronic acid] and `CC(C)C[C@H](NC(=O)C1(Cc2ccccc2)CC(CNC(=O)c2cc(-c3ccccn3)nn2C(C)C)=NO1)B(O)O` (stereo partly drawn) [Example 221, ((1R)-1-(5-benzyl-3-((1-isopropyl-3-(pyridin-2-yl)-1H-pyrazol-5-carboxamido)methyl)-4,5-dihydroisoxazol-5-carboxamido)-3-methylbutyl)boronic acid] cannot be ordered by IC50: less than 0.01 µM for the first, less than 0.01 µM for the second.

`CC(C)C[C@H](NC(=O)C1CC(CNC(=O)c2ccc3ccccc3c2)=NO1)B(O)O` (stereo partly drawn) [Example 69, [(1R)-3-methyl-1-[[3-[(naphthalen-2-carbonylamino)methyl]-4,5-dihydro-1,2-oxazol-5-carbonyl]amino]butyl]boronic acid] and `CC(C)C[C@H](NC(=O)C1CC(c2cc3ccccc3cn2)=NO1)B(O)O` (stereo partly drawn) [Example 22, ((1R)-1-(3-(isoquinolin-3-yl)-4,5-dihydroisoxazol-5-carboxamido)-3-methylbutyl)boronic acid] cannot be ordered by IC50: less than 0.025 µM for the first, less than 0.25 µM for the second.

`CC(C)C[C@H](NC(=O)C1(Cc2ccccc2)CC(C(C)(C)NC(=O)c2cccn3ccnc23)=NO1)B(O)O` (stereo partly drawn) [Example 158, ((1R)-1-(5-benzyl-3-(2-(imidazo[1,2-a]pyridin-8-carboxamido)propan-2-yl)-4,5-dihydroisoxazol-5-carboxamido)-3-methylbutyl)boronic acid] and `CC(C)C[C@H](NC(=O)C1(Cc2ccccc2)CC(CNC(=O)c2cccn3cnnc23)=NO1)B(O)O` (stereo partly shown) [Example 305] cannot be ordered by IC50: less than 0.1 µM for the first, less than 0.01 µM for the second.

`CC(C)C[C@H](NC(=O)C1(Cc2ccccc2)CC(CNC(=O)c2cccc(C(F)(F)F)c2)=NO1)B(O)O` (stereo partly shown) [Example 280] and `CC(C)C[C@H](NC(=O)C1(Cc2ccccc2)CC(CNC(=O)c2cccc(-c3ccccc3)c2)=NO1)B(O)O` (stereo partly drawn) [Example 95, ((1R)-1-(3-([1,1′-biphenyl]-3-carboxamidomethyl)-5-benzyl-4,5-dihydroisoxazol-5-carboxamido)-3-methylbutyl)boronic acid] cannot be ordered by IC50: less than 0.01 µM for the first, less than 0.01 µM for the second.

`Cc1cccc(CC2(C(=O)N[C@@H](CC(C)C)B(O)O)CC(CNC(=O)c3ccnn3C(C)C)=NO2)c1` (stereo partly drawn) [Example 242, ((1R)-1-(3-((1-isopropyl-1H-pyrazol-5-carboxamido)methyl)-5-(3-methylbenzyl)-4,5-dihydroisoxazol-5-carboxamido)-3-methylbutyl)boronic acid] and `CC(C)C[C@H](NC(=O)C1(Cc2cccc(Cl)c2)CC(CNC(=O)c2ccnn2C(C)C)=NO1)B(O)O` (stereo partly drawn) [Example 250, ((1R)-1-(5-(3-chlorobenzyl)-3-((1-isopropyl-1H-pyrazol-5-carboxamido)methyl)-4,5-dihydroisoxazol-5-carboxamido)-3-methylbutyl)boronic acid] cannot be ordered by IC50: less than 0.01 µM for the first, less than 0.01 µM for the second.

`O=C(NCC1=NOC(Cc2ccccc2)(C(=O)N[C@@H](Cc2ccccc2)B(O)O)C1)c1cccc2nccn12` (stereo partly drawn) [Example 302, ((1R)-1-(5-benzyl-3-((imidazo[1,2-a]pyridin-5-carboxamido)methyl)-4,5-dihydroisoxazol-5-carboxamido)-2-phenylethyl)boronic acid] and `O=C(NCC1=NOC(Cc2ccccc2)(C(=O)N[C@@H](Cc2ccccc2)B(O)O)C1)c1cc(Cl)ccc1Cl` (stereo partly drawn) [Example 296, ((1R)-1-(5-benzyl-3-((2,5-dichlorobenzamido)methyl)-4,5-dihydroisoxazol-5-carboxamido)-2-phenylethyl)boronic acid] cannot be ordered by IC50: less than 0.01 µM for the first, less than 0.01 µM for the second.

`CC(C)C[C@H](NC(=O)C1(Cc2ccccc2)CC(CNC(=O)c2cnccn2)=NO1)B(O)O` (stereo partly drawn) [Example 106, ((1R)-1-(5-benzyl-3-((pyrazin-2-carboxamido)methyl)-4,5-dihydroisoxazol-5-carboxamido)-3-methylbutyl)boronic acid] and `COc1cccc(C(=O)NCC2=NOC(Cc3ccccc3)(C(=O)N[C@@H](CC(C)C)B(O)O)C2)n1` (stereo partly shown) [Example 322] cannot be ordered by IC50: less than 0.01 µM for the first, less than 0.01 µM for the second.

`Cc1nc(COCC2=NOC(Cc3ccccc3)(C(=O)N[C@@H](CC(C)C)B(O)O)C2)c(Cl)s1` (stereo partly drawn) [Example 50, ((1R)-1-(5-benzyl-3-(((5-chloro-2-methylthiazol-4-yl)methoxy)methyl)-4,5-dihydroisoxazol-5-carboxamido)-3-methylbutyl)boronic acid] and `CC(C)C[C@H](NC(=O)C1(Cc2ccccc2)CC(COCc2cccc(Cl)c2)=NO1)B(O)O` (stereo partly shown) [Example 260] cannot be ordered by IC50: less than 0.01 µM for the first, less than 0.05 µM for the second.

`CC(C)C[C@H](NC(=O)C1CC(c2ccc(OC(F)(F)F)cc2)=NO1)B(O)O` (stereo partly drawn) [Example 38, ((1R)-3-methyl-1-(3-(4-(trifluoromethoxy)phenyl)-4,5-dihydroisoxazol-5-carboxamido)butyl)boronic acid] and `CC(C)C[C@H](NC(=O)C1CC(c2ccc(-c3cccnc3)cc2)=NO1)B(O)O` (stereo partly drawn) [Example 31, ((1R)-3-methyl-1-(3-(4-(pyridin-3-yl)phenyl)-4,5-dihydroisoxazol-5-carboxamido)butyl)boronic acid] cannot be ordered by IC50: less than 0.5 µM for the first, less than 0.05 µM for the second.

`CC(C)C[C@H](NC(=O)C1(Cc2ccccc2)CC(CNC(=O)c2cn(C)c3ccccc23)=NO1)B(O)O` (stereo partly drawn) [Example 208, ((1R)-1-(5-benzyl-3-((1-methyl-1H-indol-3-carboxamido)methyl)-4,5-dihydroisoxazol-5-carboxamido)-3-methylbutyl)boronic acid] and `CC(C)C[C@H](NC(=O)C1(Cc2ccccc2Cl)CC(CNC(=O)c2nccc3ccccc23)=NO1)B(O)O` (stereo partly drawn) [Example 102, ((1R)-1-(5-(2-chlorobenzyl)-3-((isoquinolin-1-carboxamido)methyl)-4,5-dihydroisoxazol-5-carboxamido)-3-methylbutyl)boronic acid] cannot be ordered by IC50: less than 0.01 µM for the first, less than 0.01 µM for the second.

`CC(C)C[C@H](NC(=O)C1(CC(C)C)CC(CNC(=O)c2cc(Cl)ccc2Cl)=NO1)B(O)O` (stereo partly drawn) [Example 90, ((1R)-1-(3-((2,5-dichlorobenzamido)methyl)-5-isobutyl-4,5-dihydroisoxazol-5-carboxamido)-3-methylbutyl)boronic acid] and `COc1cccc(CC2(C(=O)N[C@@H](CC(C)C)B(O)O)CC(CNC(=O)c3c(Cl)c(C)nn3C(C)C)=NO2)c1` (stereo partly drawn) [Example 233, ((1R)-1-(3-((4-chloro-1-isopropyl-3-methyl-1H-pyrazol-5-carboxamido)methyl)-5-(3-methoxybenzyl)-4,5-dihydroisoxazol-5-carboxamido)-3-methylbutyl)boronic acid] cannot be ordered by IC50: less than 0.025 µM for the first, less than 0.01 µM for the second.

`CC(C)C[C@H](NC(=O)[C@]1(Cc2ccccc2)CC(c2ccccc2)=NO1)B(O)O` [Example 7, ((R)-1-((S)-5-benzyl-3-phenyl-4,5-dihydroisoxazol-5-carboxamido)-3-methylbutyl)boronic acid] and `CC(C)C[C@H](NC(=O)C1(Cc2ccccc2)CC(COCc2ccccn2)=NO1)B(O)O` (stereo partly shown) [Example 268] cannot be ordered by IC50: less than 0.5 µM for the first, less than 0.01 µM for the second.

`CC(C)C[C@H](NC(=O)C1CC(Cc2ccccc2)=NO1)B(O)O` (stereo partly drawn) [Example 8, ((1R)-1-(3-benzyl-4,5-dihydroisoxazol-5-carboxamido)-3-methylbutyl)boronic acid] and `CC(C)C[C@H](NC(=O)C1CC(c2cccc(-c3ccccc3)c2)=NO1)B(O)O` (stereo partly drawn) [Example 20, ((1R)-1-(3-([1,1′-biphenyl]-3-yl)-4,5-dihydroisoxazol-5-carboxamido)-3-methylbutyl)boronic acid] cannot be ordered by IC50: less than 0.25 µM for the first, less than 0.25 µM for the second.

`CC(C)C[C@H](NC(=O)C1(Cn2cccn2)CC(CNC(=O)c2cccn3ccnc23)=NO1)B(O)O` (stereo partly drawn) [Example 149, ((1R)-1-(5-((1H-pyrazol-1-yl)methyl)-3-((imidazo[1,2-a]pyridin-8-carboxamido)methyl)-4,5-dihydroisoxazol-5-carboxamido)-3-methylbutyl)boronic acid] and `CC(C)C[C@H](NC(=O)C1(C2(c3ccccc3)CC2)CC(CNC(=O)c2cccn3ccnc23)=NO1)B(O)O` (stereo partly drawn) [Example 181, ((1R)-1-(3-((imidazo[1,2-a]pyridin-8-carboxamido)methyl)-5-(1-phenylcyclopropyl)-4,5-dihydroisoxazol-5-carboxamido)-3-methylbutyl)boronic acid] cannot be ordered by IC50: less than 0.01 µM for the first, less than 0.05 µM for the second.

`CC(C)C[C@H](NC(=O)C1CC(C(=O)Nc2cccc(Cl)c2)=NO1)B(O)O` (stereo partly drawn) [Example 77, ((1R)-1-(3-((3-chlorophenyl)carbamoyl)-4,5-dihydroisoxazol-5-carboxamido)-3-methylbutyl)boronic acid] and `CC(C)C[C@H](NC(=O)C1CC(c2cccc(OCc3ccccn3)c2)=NO1)B(O)O` (stereo partly drawn) [Example 43, ((1R)-3-methyl-1-(3-(3-(pyridin-2-ylmethoxy)phenyl)-4,5-dihydroisoxazol-5-carboxamido)butyl)boronic acid] cannot be ordered by IC50: less than 0.25 µM for the first, less than 0.25 µM for the second.

`COc1cccc(COCC2=NOC(Cc3ccccc3)(C(=O)N[C@@H](Cc3ccccc3)B(O)O)C2)c1` (stereo partly drawn) [Example 273, ((1R)-1-(5-benzyl-3-(((3-methoxybenzyl)oxy)methyl)-4,5-dihydroisoxazol-5-carboxamido)-2-phenylethyl)boronic acid] and `COc1cccc(COCC2=NOC(Cc3ccccc3)(C(=O)N[C@@H](CC(C)C)B(O)O)C2)c1` (stereo partly shown) [Example 272] cannot be ordered by IC50: less than 0.01 µM for the first, less than 0.01 µM for the second.
